In assay [1] the target is T1, Tubulin (Homo sapiens) (UniProt P68371+Q9H4B7+P0DPH7+P68366+Q13509+Q71U36+P04350+Q3ZCM7+P07437+P68363+Q9BQE3+Q6PEY2+Q13885+Q9BVA1+Q9BUF5). In words: Binding affinity to microtubules, activity expressed as ID50 of compound/ID50 of paclitaxel. The format is protein-complex assay.
The target in assay [2] is T1, Tubulin (Homo sapiens). In words: Binding affinity to microtubules, activity expressed as log 1/ID50 of compound/ID50 of paclitaxel. In kind it is protein-complex assay.

As for `CC(=O)O[C@H]1C(=O)[C@]2(C)[C@@H](OC(=O)c3ccccc3)C[C@H]3OC[C@@]3(OC(C)=O)[C@H]2[C@H](OC(=O)c2ccccc2)[C@]2(O)C[C@H](OC(=O)[C@H](O)[C@@H](NC(=O)c3ccccc3)c3ccccc3)C(C)=C1C2(C)C`, the ID50 ratio in assay [1] was found to be 1.7. Also, the Log 1/ratio in assay [2] was -0.23.

Turning to `CC(=O)O[C@H]1C(=O)[C@]2(C)[C@@H](OC(=O)[C@H](N)CCC(=O)O)C[C@H]3OC[C@@]3(OC(C)=O)[C@H]2[C@H](OC(=O)c2ccccc2)[C@]2(O)C[C@H](OC(=O)[C@H](O)[C@@H](NC(=O)c3ccccc3)c3ccccc3)C(C)=C1C2(C)C`, the ID50 ratio in assay [1] was found to be 1. For the same compound, the Log 1/ratio in assay [2] was determined as 0.

In the case of `CC(=O)O[C@@]12CO[C@@H]1C[C@H](O)[C@@]1(C)C(=O)[C@H](O)C3=C(C)[C@@H](OC(=O)/C=C/c4ccccc4)C[C@@](O)([C@@H](OC(=O)c4ccccc4)[C@H]21)C3(C)C`, in assay [1], the ID50 ratio amounted to 23. For the same compound, the Log 1/ratio in assay [2] is -1.37.

On to `CC(=O)O[C@H]1C(=O)[C@@]2(C)[C@H]([C@H](OC(=O)c3ccccc3)[C@]3(O)C[C@H](OC(=O)[C@H](O)[C@@H](NC(=O)c4ccc(C)cc4)c4ccccc4)C(C)=C1C3(C)C)[C@]1(OC(C)=O)CO[C@@H]1C[C@@H]2O`, for which the ID50 ratio in assay [1] was 1.6. Further, the Log 1/ratio in assay [2] was -0.204.

As to `CC(=O)O[C@@]12CO[C@@H]1C[C@H](O)[C@@]1(C)C(=O)[C@H](O)C3=C(C)[C@@H](OC(=O)[C@@H](O)[C@@H](N)c4ccccc4)C[C@@](O)([C@@H](OC(=O)c4ccccc4)[C@H]21)C3(C)C`, in assay [1], the ID50 ratio was determined as 30. In assay [2], the Log 1/ratio was -1.48.

In the case of `CC(=O)O[C@H]1C(=O)[C@@]2(C)[C@H]([C@H](OC(=O)c3ccccc3)[C@]3(O)C[C@H](OC(=O)[C@H](O)[C@@H](NC(=O)c4cccc(Cl)c4)c4ccccc4)C(C)=C1C3(C)C)[C@]1(OC(C)=O)CO[C@@H]1C[C@@H]2O`, in assay [1], the ID50 ratio turned out to be 2. In assay [2], the Log 1/ratio is -0.301.

As to `COc1ccc(C(=O)N[C@@H](c2ccccc2)[C@@H](O)C(=O)O[C@H]2C[C@@]3(O)[C@@H](OC(=O)c4ccccc4)[C@@H]4[C@]5(OC(C)=O)CO[C@@H]5C[C@H](O)[C@@]4(C)C(=O)[C@H](OC(C)=O)C(=C2C)C3(C)C)cc1`, in assay [1], the ID50 ratio came out at 0.6. The Log 1/ratio in assay [2] stood at 0.222.

In the case of `CC(=O)O[C@@]12CO[C@@H]1C[C@H](OC(=O)[C@H](N)Cc1ccccc1)[C@@]1(C)C(=O)[C@H](O)C3=C(C)[C@@H](OC(=O)[C@H](O)[C@@H](NC(=O)OC(C)(C)C)c4ccccc4)C[C@@](O)([C@@H](OC(=O)c4ccccc4)[C@H]21)C3(C)C`, the ID50 ratio in assay [1] came out at 1. Moreover, the Log 1/ratio in assay [2] worked out at 0.

On to `CC(=O)O[C@@]12CO[C@@H]1C[C@H](O)[C@@]1(C)C(=O)[C@H](O)C3=C(C)[C@@H](OC(=O)CCc4ccccc4)C[C@@](O)([C@@H](OC(=O)c4ccccc4)[C@H]21)C3(C)C`, for which the ID50 ratio in assay [1] stood at 17. Besides, in assay [2], the Log 1/ratio was -1.23.

With `CC(=O)O[C@H]1C(=O)[C@@]2(C)[C@H]([C@H](OC(=O)c3ccccc3)[C@]3(O)C[C@H](OC(=O)[C@H](O)[C@@H](NC(=O)CC(C)(C)C)c4ccccc4)C(C)=C1C3(C)C)[C@]1(OC(C)=O)CO[C@@H]1C[C@@H]2O`, the ID50 ratio in assay [1] stood at 0.7. The Log 1/ratio in assay [2] turned out to be 0.155.

In the case of `CC(=O)O[C@H]1C(=O)[C@@]2(C)[C@H]([C@H](OC(=O)c3ccccc3)[C@]3(O)C[C@H](OC(=O)[C@H](OC(C)=O)[C@@H](NC(=O)c4ccccc4)c4ccccc4)C(C)=C1C3(C)C)[C@]1(OC(C)=O)CO[C@@H]1C[C@@H]2O`, in assay [1], the ID50 ratio came to 30. The Log 1/ratio in assay [2] was -1.48.

`CCCCOC(=O)N[C@@H](c1ccccc1)[C@@H](O)C(=O)O[C@H]1C[C@@]2(O)[C@@H](OC(=O)c3ccccc3)[C@@H]3[C@]4(OC(C)=O)CO[C@@H]4C[C@H](O)[C@@]3(C)C(=O)[C@H](OC(C)=O)C(=C1C)C2(C)C`: the ID50 ratio in assay [1] was 0.8. In addition, the Log 1/ratio in assay [2] was determined as 0.0969.

For `CC(=O)O[C@H]1C(=O)[C@@]2(C)[C@H]([C@H](OC(=O)c3ccccc3)[C@]3(O)C[C@H](OC(=O)[C@@H](O)[C@H](NC(=O)OC(C)(C)C)c4ccccc4)C(C)=C1C3(C)C)[C@]1(OC(C)=O)CO[C@@H]1C[C@@H]2O`, the ID50 ratio in assay [1] was determined as 30. Also, the Log 1/ratio in assay [2] was -1.48.

As for `CC(=O)O[C@H]1C(=O)[C@@]2(C)[C@H]([C@H](OC(=O)c3ccccc3)[C@]3(O)C[C@H](OC(=O)[C@H](O)[C@@H](NC(=O)c4ccccc4)c4ccc(O)cc4)C(C)=C1C3(C)C)[C@]1(OC(C)=O)CO[C@@H]1C[C@@H]2O`, the ID50 ratio in assay [1] was 0.8. Also, the Log 1/ratio in assay [2] was 0.0969.

`CC(=O)O[C@H]1C(=O)[C@@]2(C)[C@H]([C@H](OC(=O)c3ccccc3)[C@]3(O)C[C@H](OC(=O)[C@H](O)[C@@H](NC(=O)c4ccc(C(F)(F)F)cc4)c4ccccc4)C(C)=C1C3(C)C)[C@]1(OC(C)=O)CO[C@@H]1C[C@@H]2O`: in assay [1], the ID50 ratio worked out at 6. For the same compound, in assay [2], the Log 1/ratio is -0.778.

In the case of `CC(=O)O[C@H]1C(=O)[C@@]2(C)[C@H]([C@H](OC(=O)c3ccccc3)[C@]3(O)C[C@H](OC(=O)[C@H](O)[C@@H](NC(=O)c4ccccc4)c4cccc(Cl)c4)C(C)=C1C3(C)C)[C@]1(OC(C)=O)CO[C@@H]1C[C@@H]2O`, in assay [1], the ID50 ratio stood at 4.4. Further, the Log 1/ratio in assay [2] was -0.644.

As to `CC(=O)O[C@H]1C(=O)[C@@]2(C)[C@H]([C@H](OC(=O)c3ccccc3)[C@]3(O)C[C@H](OC(=O)[C@H](O)[C@@H](NC(=O)c4ccccc4)c4ccc(Cl)cc4)C(C)=C1C3(C)C)[C@]1(OC(C)=O)CO[C@@H]1C[C@@H]2O`, in assay [1], the ID50 ratio is 1.9. Moreover, in assay [2], the Log 1/ratio is -0.279.

As to `CC(=O)O[C@@H](C(=O)O[C@H]1C[C@@]2(O)[C@@H](OC(=O)c3ccccc3)[C@@H]3[C@]4(OC(C)=O)CO[C@@H]4C[C@H](O)[C@@]3(C)C(=O)[C@H](O)C(=C1C)C2(C)C)[C@@H](NC(=O)OC(C)(C)C)c1ccccc1`, the ID50 ratio in assay [1] was found to be 10. Also, in assay [2], the Log 1/ratio was -1.48.

Turning to `CC(=O)O[C@@]12CO[C@@H]1C[C@H](O)[C@@]1(C)C(=O)[C@H](O)C3=C(C)[C@@H](OC(=O)[C@@H](NC(=O)OC(C)(C)C)[C@H](O)c4ccccc4)C[C@@](O)([C@@H](OC(=O)c4ccccc4)[C@H]21)C3(C)C`, the ID50 ratio in assay [1] turned out to be 160. Also, in assay [2], the Log 1/ratio was -2.2.

In the case of `CC(=O)O[C@H]1C(=O)[C@@]2(C)[C@H]([C@H](OC(=O)c3ccccc3)[C@]3(O)C[C@H](OC(=O)[C@H](O)[C@@H](NC(=O)c4ccc(Cl)cc4)c4ccccc4)C(C)=C1C3(C)C)[C@]1(OC(C)=O)CO[C@@H]1C[C@@H]2O`, the ID50 ratio in assay [1] is 2.4. Besides, the Log 1/ratio in assay [2] is -0.38.

With `CC(=O)O[C@H]1C(=O)[C@@]2(C)[C@H]([C@H](OC(=O)c3ccccc3)[C@]3(O)C[C@H](OC(=O)[C@H](O)[C@@H](NC(=O)C(C)=O)c4ccccc4)C(C)=C1C3(C)C)[C@]1(OC(C)=O)CO[C@@H]1C[C@@H]2O`, in assay [1], the ID50 ratio came out at 3.5. For the same compound, the Log 1/ratio in assay [2] was -0.544.

As for `CC(=O)O[C@@]12CO[C@@H]1C[C@H](O)[C@@]1(C)C(=O)[C@H](O)C3=C(C)[C@@H](OC(=O)[C@@H](O)[C@H](NC(=O)c4ccccc4)c4ccccc4)C[C@@](O)([C@@H](OC(=O)c4ccccc4)[C@H]21)C3(C)C`, in assay [1], the ID50 ratio came to 4. Moreover, the Log 1/ratio in assay [2] was -0.602.

Turning to `CC(=O)O[C@H]1C(=O)[C@@]2(C)[C@H]([C@H](OC(=O)c3ccccc3)[C@]3(O)C[C@H](OC(=O)[C@H](O)[C@@H](NC(=O)OCc4ccccc4)c4ccccc4)C(C)=C1C3(C)C)[C@]1(OC(C)=O)CO[C@@H]1C[C@@H]2O`, the ID50 ratio in assay [1] amounted to 3.3.

Take `CC(=O)O[C@H]1C(=O)[C@@]2(C)[C@H]([C@H](OC(=O)c3ccccc3)[C@]3(O)C[C@H](OC(=O)[C@H](O)[C@@H](NC(=O)c4cccc(N(C)C)c4)c4ccccc4)C(C)=C1C3(C)C)[C@]1(OC(C)=O)CO[C@@H]1C[C@@H]2O`: in assay [1], the ID50 ratio was 1.4.

For `CC(=O)O[C@H]1C(=O)[C@@]2(C)[C@H]([C@H](OC(=O)c3ccccc3)[C@]3(O)C[C@H](OC(=O)[C@H](O)[C@@H](NC(=O)c4ccc(N=[N+]=[N-])cc4)c4ccccc4)C(C)=C1C3(C)C)[C@]1(OC(C)=O)CO[C@@H]1C[C@@H]2O`, in assay [1], the ID50 ratio amounted to 2.

For `CC(=O)O[C@H]1C(=O)[C@@]2(C)[C@H]([C@H](OC(=O)c3ccccc3)[C@]3(O)C[C@H](OC(=O)[C@H](O)[C@@H](NC(=O)c4ccc([N+](=O)[O-])cc4)c4ccccc4)C(C)=C1C3(C)C)[C@]1(OC(C)=O)CO[C@@H]1C[C@@H]2O`, the ID50 ratio in assay [1] worked out at 2.

For the compound `CC(=O)O[C@H]1C(=O)[C@@]2(C)[C@H]([C@H](OC(=O)c3ccccc3)[C@]3(O)C[C@H](OC(=O)[C@H](O)[C@@H](NC(=O)OC(C)(C)C)c4ccco4)C(C)=C1C3(C)C)[C@]1(OC(C)=O)CO[C@@H]1C[C@@H]2O`, the ID50 ratio in assay [1] turned out to be 1.7.

Consider `CC(=O)O[C@@]12CO[C@@H]1C[C@H](O)[C@@]1(C)C(=O)CC3=C(C)[C@@H](OC(=O)[C@H](O)[C@@H](NC(=O)c4ccccc4)c4ccccc4)C[C@@](O)([C@@H](OC(=O)c4ccccc4)[C@H]21)C3(C)C` (stereo in doubt; 19), for which the ID50 ratio in assay [1] came out at 106.

`CC(=O)O[C@H]1C(=O)[C@]2(C)[C@@H](OC(C)=O)C[C@H]3OC[C@@]3(OC(C)=O)[C@H]2[C@H](OC(=O)c2ccccc2)[C@]2(O)C[C@H](OC(=O)[C@H](O)[C@@H](NC(=O)c3ccccc3)c3ccccc3)C(C)=C1C2(C)C`: the ID50 ratio in assay [1] is 2.

With `CC(=O)O[C@H]1C(=O)[C@@]2(C)[C@H]([C@H](OC(=O)c3ccccc3)[C@]3(O)C[C@H](OC(=O)[C@H](O)[C@@H](NC(=O)c4ccccc4)c4cccnc4)C(C)=C1C3(C)C)[C@]1(OC(C)=O)CO[C@@H]1C[C@@H]2O`, in assay [1], the ID50 ratio worked out at 0.5.

Take `CC(=O)O[C@H]1C(=O)[C@@]2(C)[C@H]([C@H](OC(=O)c3ccccc3)[C@]3(O)C[C@H](OC(=O)[C@@H](C)O)C(C)=C1C3(C)C)[C@]1(OC(C)=O)CO[C@@H]1C[C@@H]2O`: in assay [1], the ID50 ratio worked out at 5.6.

For the compound `CC(=O)O[C@@]12CO[C@@H]1C[C@H](OC(=O)CCCC(=O)O)[C@@]1(C)C(=O)[C@H](OC(=O)CCCC(=O)O)C3=C(C)[C@@H](OC(=O)[C@H](O)[C@@H](NC(=O)OC(C)(C)C)c4ccccc4)C[C@@](O)([C@@H](OC(=O)c4ccccc4)[C@H]21)C3(C)C`, in assay [1], the ID50 ratio is 2.
